This is an account of results in US4001429A, “1-Cyclopropyl-1-phenyl-ω-amino-1-alkanols and 1-lower-alkylacyl derivatives as analgetics” (A. H. Robins Company, Incorporated, priority 1975, dated 1977).

Experiment [1] concerns depressant effects which are induced in mice by tetrabenazine. Nature of the experiment: blocking the depressant effects induced in mice by intravenous tetrabenazine (modification of Englehardt et al.). In kind it is in vivo. As to conditions: Mus musculus, IP. The protocol:
The activity of the compounds was determined by their administration intraperitoneally to mice and their effectiveness in blocking the depressant effects which are induced in mice by the intravenous administration of 2-oxo-3-insobutyl-9,10-dimethoxy-1,2,3,4,6,7-hexahydro-11bh-benzo[a]quinolizine (tetrabenazine). The procedure used was a modification of Englehardt, E. L. et al, J. Med. Chem. 11 (2), 325(1968). The ED50 values of the compounds are given in Table I; the compounds of Examples 3, 5, 7 and 8 are the preferred compounds.

Experiment [2] relates to mice. Nature of the experiment: analgesic activity in mice, modification of Nilsen's method. In kind it is in vivo. The following applies: Mus musculus, ip; administered intraperitoneally to mice; read-out: ED50 analgetic dose. As for the experimental part:
The analgesic activity of the 1-cyclopropyl-1-alkanoyloxy-1-phenyl-ω-amino alkane compounds of this invention were determined by a modification of Nilsen's method [Funderburk, W. H., et al, Arch. Int.

SMILES strings stand for the structures. Counter-ions that a name gives are not always drawn.

For `CCC(=O)OC(CCN(C)C)(c1ccccc1)C1CC1` (centres unmarked) [Example 10, 1-Cyclopropyl-3-dimethylamino-1phenyl-1-propionyloxypropane Hydrochloride], the ED50 in experiment [1] is 7.7 mg/kg; in experiment [2], 14.2 mg/kg.

For orientation: ED50 means the dose at which the effect has come halfway, by size or by number of responders.
